Results: patent US20250000873A1, “INHALED ILOPROST FOR RESCUE TREATMENT AND TREATMENT AS NEEDED IN PULMONARY HYPERTENSION” (JUSTUS-LIEBIG-UNIVERSITAET GIESSEN, priority 2021, published 2025)
Entries after “also recorded” stand apart in the source; their conditions may differ.

Key:
[1] = tested on: hemodynamic parameters of pulmonary circulation; conditions: conventional nebulizers, administered over 10 minutes; cited from earlier work
[2] = tested on: patients with pulmonary arterial hypertension; assay: Clinical pilot study of iloprost PRN, hemodynamics by intracardiac catheter and tolerability; format: in vivo, human
Method: A clinical pilot study to evaluate the feasibility of iloprost PRN was conducted with 4 patients. Eligible were male and female patients with pulmonary arterial hypertension in the age from 18 to 70 years having a mean pulmonary arterial blood pressure (PAP) higher than 25 mm Hg, a pulmonary vascular resistance (PVR) higher than 240 dyn*s*cm−5, a central venous pressure (CVP) higher than 3 mm Hg, and a pulmonary capillary wedge pressure (PCWP) lower than 12 mm Hg. Patients were therapy-naïve, or were receiving PH-specific medication (endothelin receptor antagonists, phosphodiesterase type 5 inhibitors, prostacyclin analogues) alone or in combination. Patients were monitored by ECG, pulse oxymetry, and non-invasive blood pressure measurement. An intracardiac catheter was introduced into the distal pulmonary artery to measure PAP, CVP, PCWP, and cardiac output. Also measured were the heart rate, systemic arterial pressure (SAP), systemic vascular resistance (SVR), central arterial and venous blood gases. After the initial determination of all parameters the reactivity of the pulmonary vasculature to oxygen (2 to 4 L/min) and nitric oxide (20 ppm) was tested. Subsequently, patients inhaled a single dose of 2.5 μg of nebulized iloprost in two breaths, using a prototype of a soft mist inhaler filled with iloprost in a concentration of 50 μg/ml. Hemodynamic parameters and clinical condition of the patients were assessed before and 1, 5, 15 and 30 minutes after inhalation. In the absence of adverse effects, a second inhalation maneuver with 4 breaths corresponding to a dose 5 μg iloprost was performed, again followed by an observation period of at least 30 minutes.

In the case of CC#CCC(C)[C@H](O)/C=C/[C@@H]1[C@H]2C/C(=C/CCCC(=O)O)C[C@H]2C[C@H]1O (stereo partly drawn) [iloprost, 5-{(E)-(1S,5S,6R,7R)-7-hydroxy-6[(E)-(3S,4RS)-3-hydroxy-4-methyl-1-octen-6-inyl]-bicyclo[3.3.0]octan-3-ylidene}pentanoic acid], the “Time of maximum therapeutic effects on hemodynamic parameters of pulmonary circulation after end of inhalation” value [1] is given as “approximately 5 minutes”, the “Tolerability of the treatment” value ([2]; inhaled 2.5 μg (2 breaths) then 5 μg (4 breaths), prototype soft mist inhaler, iloprost 50 μg/ml, 4 patients) is given as “all patients tolerated the treatment well” and the “Systemic side effects (SAP and SVR changes)” value ([2]; inhaled 2.5 μg or 5 μg, soft mist inhaler prototype, n=4) is given as “without significant systemic side effects”. For the same compound, the “Onset of therapeutic pulmonary vascular effects (PAP and PVR changes)” value ([2]; rapid inhalation of 2.5 μg or 5 μg (2 or 4 puffs à 1.25 μg), soft mist inhaler prototype, n=4) was “already seen within only one minute after rapid iloprost inhalation; also recorded: already registered one minute after finishing the inhalation maneuver”.
